From the NIST ThermoML archive (doi:10.1016/j.jct.2015.03.007)

Experiment: xn = mol fraction of the nth substance listed
Details: Fluid (supercritical or subcritical phases), Vibrating wire viscometry, x2 = 0.5174

C [methane] + O=C=O
Details | viscosity [mPa·s]
229 K, 14501 kPa | 0.073
229.3 K, 12980 kPa | 0.0703
229.4 K, 11654 kPa | 0.06874
229.5 K, 10963 kPa | 0.0679
229.5 K, 13698 kPa | 0.0721
229.5 K, 14200 kPa | 0.07231
229.6 K, 10168 kPa | 0.06646
257.8 K, 19252 kPa | 0.05496
257.8 K, 21263 kPa | 0.0575
257.9 K, 12165 kPa | 0.04274
257.9 K, 14190 kPa | 0.047
257.9 K, 18239 kPa | 0.0541
257.9 K, 22280 kPa | 0.05903
257.9 K, 23289 kPa | 0.05979
258 K, 16209 kPa | 0.05083
287.7 K, 7818 kPa | 0.01711
287.7 K, 8134 kPa | 0.01748
287.7 K, 11663 kPa | 0.02384
287.7 K, 12567 kPa | 0.02598
287.7 K, 13512 kPa | 0.02819
287.7 K, 14605 kPa | 0.03051
287.7 K, 15897 kPa | 0.03311
287.7 K, 17472 kPa | 0.03599
287.7 K, 19398 kPa | 0.0392
287.7 K, 21895 kPa | 0.04255
287.7 K, 25061 kPa | 0.04633
287.8 K, 8895 kPa | 0.01845
287.8 K, 9137 kPa | 0.01889
287.8 K, 9866 kPa | 0.02011
287.8 K, 31033 kPa | 0.0527
288.1 K, 1438 kPa | 0.01349
288.1 K, 1553 kPa | 0.0135
288.1 K, 2042 kPa | 0.01369
288.1 K, 2553 kPa | 0.01388
288.1 K, 3073 kPa | 0.01402
288.1 K, 3570 kPa | 0.01425
288.1 K, 5123 kPa | 0.01498
288.1 K, 5405 kPa | 0.01519
288.2 K, 4066 kPa | 0.01442
288.2 K, 4594 kPa | 0.01468
288.2 K, 6609 kPa | 0.01593
288.2 K, 7116 kPa | 0.01636
288.2 K, 9140 kPa | 0.01892
288.2 K, 11159 kPa | 0.02281
288.2 K, 13180 kPa | 0.02721
288.2 K, 15201 kPa | 0.03146
288.2 K, 19138 kPa | 0.03829
288.2 K, 21458 kPa | 0.04192
288.2 K, 23984 kPa | 0.04512
288.2 K, 25172 kPa | 0.04621
288.2 K, 26302 kPa | 0.04748
317.8 K, 2056 kPa | 0.01479
317.9 K, 1389 kPa | 0.01457
317.9 K, 1545 kPa | 0.01462
318 K, 2566 kPa | 0.015
318 K, 3069 kPa | 0.01518
318 K, 4578 kPa | 0.01571
318 K, 5085 kPa | 0.01587
318 K, 6297 kPa | 0.01646
318.1 K, 6520 kPa | 0.01648
318.1 K, 7151 kPa | 0.01689
318.1 K, 7212 kPa | 0.01688
318.1 K, 8226 kPa | 0.01751
318.1 K, 9335 kPa | 0.0182
318.1 K, 10457 kPa | 0.01916
318.1 K, 11460 kPa | 0.02013
318.1 K, 12573 kPa | 0.02123
318.1 K, 13584 kPa | 0.02235
318.1 K, 14713 kPa | 0.02377
318.1 K, 15239 kPa | 0.02432
318.1 K, 15724 kPa | 0.02502
318.1 K, 16254 kPa | 0.02562
318.1 K, 17842 kPa | 0.02789
318.1 K, 20300 kPa | 0.03122
318.1 K, 21518 kPa | 0.03236
318.1 K, 22819 kPa | 0.03405
318.1 K, 24011 kPa | 0.03506
318.1 K, 25249 kPa | 0.03636
318.1 K, 26412 kPa | 0.03781
318.1 K, 27392 kPa | 0.03909
318.1 K, 28884 kPa | 0.04047
318.1 K, 30364 kPa | 0.04187
318.1 K, 31857 kPa | 0.04341
347.7 K, 4516 kPa | 0.01665
347.8 K, 2161 kPa | 0.01599
347.8 K, 2764 kPa | 0.01606
347.8 K, 2964 kPa | 0.01612
347.8 K, 3169 kPa | 0.01615
347.8 K, 3278 kPa | 0.01616
347.8 K, 3485 kPa | 0.01631
347.8 K, 4003 kPa | 0.01648
347.8 K, 5009 kPa | 0.01682
347.8 K, 5509 kPa | 0.01696
347.8 K, 5514 kPa | 0.01701
347.8 K, 6032 kPa | 0.01714
347.8 K, 6512 kPa | 0.01731
347.8 K, 7016 kPa | 0.01746
347.8 K, 7538 kPa | 0.01766
347.8 K, 8039 kPa | 0.01795
347.8 K, 8528 kPa | 0.01812
347.8 K, 9051 kPa | 0.01836
347.8 K, 10090 kPa | 0.0189
347.8 K, 10617 kPa | 0.01914
347.8 K, 11109 kPa | 0.01948
347.8 K, 11596 kPa | 0.01976
347.8 K, 12118 kPa | 0.02008
347.8 K, 12605 kPa | 0.02043
347.8 K, 13204 kPa | 0.02102
347.8 K, 13713 kPa | 0.02132
347.8 K, 14226 kPa | 0.02172
347.8 K, 14732 kPa | 0.02205
347.8 K, 16775 kPa | 0.02364
347.8 K, 18782 kPa | 0.02533
347.8 K, 20792 kPa | 0.02732
347.9 K, 1555 kPa | 0.01586
347.9 K, 1745 kPa | 0.01584
347.9 K, 1956 kPa | 0.01592
347.9 K, 2361 kPa | 0.01592
347.9 K, 2566 kPa | 0.01603
